# According to patent US11773369B2, “Generation of human spinal cord neural stem cells” (THE REGENTS OF THE UNIVERSITY OF CALIFORNIA, priority 2018, dated 2023):
# Test system: H9-derived spinal cord NSCs
# Test: Long-term maintenance and expansion of spinal cord NSCs in neural maintenance media
# Type: cell-based, human
# Details: for effect of omission from maintenance media on cultures: omission of the component, data not shown
SMILES,effect of omission from maintenance media on cultures,"effect on dorso-ventral polarity of induced cells (NKX6.1, PAX6) (18 days after neural induction)"
Cc1c[nH]c(-c2cnc(NCCNc3ccc(C#N)cn3)nc2-c2ccc(Cl)cc2Cl)n1 [CHIR],failure to sustain cultures over time,–
CNC1CCC(N(Cc2cccc(-c3ccncc3)c2)C(=O)c2sc3c(F)ccc(F)c3c2Cl)CC1 (stereo not drawn) [Hh-Ag1.5],failure to sustain cultures over time,disrupted dorso-ventral polarity
